Counter-ions that a name gives are not always drawn.
Test system: morning sickness
Assay: Doctor survey: composition compared with other morning sickness remedies tried during the same pregnancy
Assay type: in vivo, pregnant patients
Settings: for Patients' preference, composition versus the named remedy: overall, in words
From the text: Doctors across the United States were each sent four bottles of the composition described herein, and were invited to allow their pregnant patients to try the composition as a remedy for morning sickness. The same doctors were also sent a survey inquiring about the patients'experience with the composition, the other remedies used, and how the composition disclosed herein compared with the other remedies.
The survey also asked about other known morning sickness remedies. […] Some of the other remedies included Reglan® (metochlopramide, commercially available from Robins Co., Richmond, Va.), Emetrol® (dextrose, levulose, phosphoric acid, commercially available from Pfizer, Inc., New York, N.Y.), Mylanta® (calcium carbonate, magnesium hydroxide, commercially available from Johnson & Johnson, Merck Consumer Pharmaceuticals Co., Fort Washington, Pa.), Premesis Rx® (calcium carbonate, vitamin B12, folic acid, vitamin B6, commercially available from KV Pharmaceutical Co., St. Louis, Mo.), Compazine® (prochlorperazine, commercially available from SmithKline Beecham, Philadelphia, Pa.), and meclizine (commercially available under the tradename Antivert® from Pfizer, Inc., New York, N.Y.).
Regardless of whether they tried one or more remedies besides the disclosed composition, each doctor was asked, for each patient: did the composition work 1) better than other products or combinations, 2) better than some, but not as well as others, or 3) not as well as other products or combinations.
Another question in the survey asked the doctors what products each patient took besides the composition, and then whether the composition worked 1) better than other products or combinations, 2) better than some, but not as well as others, or 3) not as well as other products or combinations.

[1] = composition versus the named remedy, the two taken alone or with other remedies
[2] = composition versus the named remedy, the two taken alone or with other remedies, hydrochloride
[3] = patients who tried only the named remedy or combination besides the composition

CCN(CC)CCNC(=O)c1cc(Cl)c(N)cc1OC [Reglan ®, metochlopramide]
Percent of Patients for whom the Composition Did Not Work as Well [1]: 60% | Percent of Patients for whom the Composition worked Better [1]: 0%

CC(CN1c2ccccc2Sc2ccccc21)N(C)C (stereo not drawn) [Phenergan ®, promethazine hydrochloride]
Percent of Patients for whom the Composition Did Not Work as Well [2]: 32% | Percent of Patients for whom the Composition worked Better [2]: 40% | Patients' preference, composition versus the named remedy: prefer | Patients for whom the composition definitely worked better than the remedy/remedies tried in addition [3]: better for 4 patients

Cc1nccn1CC1CCc2c(c3ccccc3n2C)C1=O (stereo not drawn) [Zofran ®, ondansetron hydrochloride]
Percent of Patients for whom the Composition worked Better [1]: 36% | Percent of Patients for whom the Composition Did Not Work as Well [2]: 42% | Percent of Patients for whom the Composition Did Not Work as Well (composition versus the named remedy, the two taken alone or with other remedies, listed as Zofran®, hydrochloride): at least 36% | Patients' preference, composition versus the named remedy: prefer | Patients for whom the composition definitely worked better than the remedy/remedies tried in addition [3]: better for 5 patients

CN1CCN(CCCN2c3ccccc3Sc3ccc(Cl)cc32)CC1 [Compazine ®, prochlorperazine]
Percent of Patients for whom the Composition Did Not Work as Well [1]: 29% | Percent of Patients for whom the Composition worked Better [1]: 43% | Patients for whom the composition definitely worked better than the remedy/remedies tried in addition [3]: better for 3 patients

CC(CN1c2ccccc2Sc2ccccc21)N(C)C (stereo not drawn) [Promethazine ®, Promethazine]
Percent of Patients for whom the Composition Did Not Work as Well [1]: 100% | Percent of Patients for whom the Composition worked Better [1]: 0%

Cc1ncc(CO)c(CO)c1O.Cl [Vitamin B6, pyridoxine hydrochloride]
Patients for whom the composition definitely worked better than the remedy/remedies tried in addition (in vivo): better for 7 patients | Percent of Patients for whom the Composition Did Not Work as Well (in vivo): 11% | Patients' preference, composition versus the named remedy: like the composition better

Cc1cccc(CN2CCN(C(c3ccccc3)c3ccc(Cl)cc3)CC2)c1 (stereo not drawn) [Meclizine ®, meclizine]
Percent of Patients for whom the Composition Did Not Work as Well [1]: 0% | Percent of Patients for whom the Composition worked Better [1]: 100%
